These results are taken from ChEMBL document CHEMBL1201862, “PubChem BioAssay data set” (2004).

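Cells were grown in 96-well plates and exposed to each compound for 48 hours at five concentrations; endpoints were interpolated linearly between bracketing concentrations, or set to the highest concentration if not reached. GI50 = concentration required for 50% inhibition of growth.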 Active and inactive are the calls of the source. Cut-off read from the data, not from the text of the source: active = GI50 up to about 1.1 µM and inactive = higher.

Among the test systems are RXF 393; HOP-92; SK-MEL-5; SNB-19; HCT-116; OVCAR-3; IGROV-1; LXFL 529; SNB-78; NCI-H522; HT-29; OVCAR-4; UACC-257; SF-268; SK-MEL-28; SF-539; KM12; NCI-H23; Hs-578T; PC-3.
Experiment in all cases: inhibition of tumour cell growth, NCI panel, 48 h

In the case of `CNC(=O)OCc1nc(SSc2nc(COC(=O)NC)c(COC(=O)NC)n2C)n(C)c1COC(=O)NC`, the GI50 in the assay with RXF 393, in the assay on HOP-92, with SK-MEL-5, with SNB-19, in the assay on HCT-116 and with OVCAR-3 was > 100 µM (inactive) each time. Further, the GI50 with IGROV-1, with LXFL 529, with SNB-78, with NCI-H522, in the assay with HT-29 and in the assay with OVCAR-4 was > 100 µM (inactive) in each case. The GI50 in the assay with UACC-257, with SF-268, with SK-MEL-28, in the assay on SF-539, in the assay on KM12 and in the assay with NCI-H23 was > 100 µM (inactive) each time.
`COC(=O)C1=C(C(=O)OC)C2(C3C(SC)=CC(C)(C)CC3S1)N(Cc1ccccc1)CCN2Cc1ccccc1` (centres undefined): the GI50 in the assay on RXF 393 is 54.7 µM (inactive); in the assay on HOP-92 it was < 0.01 µM (active); in the assay on SK-MEL-5 it was 65.5 µM (inactive); in the assay with SNB-19 it was > 100 µM (inactive); with HCT-116 it was > 100 µM (inactive); in the assay on OVCAR-3, > 100 µM (inactive). The GI50 in the assay on IGROV-1, in the assay on LXFL 529, with SNB-78, in the assay on NCI-H522, in the assay with HT-29 and in the assay with OVCAR-4 was > 100 µM (inactive) throughout. The GI50 in the assay on UACC-257, in the assay with SF-268, in the assay on SK-MEL-28, with SF-539, with KM12 and in the assay on NCI-H23 was > 100 µM (inactive) throughout.
With `CC(=O)c1c2c(cc3c1CC1(C3)Cc3cc4c(c(C(C)=O)c3C1)CCC4)CCC2`, the GI50 in the assay on RXF 393, in the assay with HOP-92, in the assay with SK-MEL-5, with SNB-19, in the assay on HCT-116 and with OVCAR-3 was > 100 µM (inactive) each time. In addition, the GI50 with IGROV-1, in the assay with LXFL 529, with SNB-78, with NCI-H522, in the assay on HT-29 and with OVCAR-4 was > 100 µM (inactive) in each case. Moreover, the GI50 with UACC-257, in the assay on SF-268, in the assay with SK-MEL-28, in the assay on SF-539, in the assay on KM12 and in the assay with NCI-H23 was > 100 µM (inactive) throughout.
For `CC1=CC=NN2C(=O)[C@H](C)C2C1` (some centres undefined), the GI50 in the assay with RXF 393, in the assay on HOP-92, in the assay on SK-MEL-5, in the assay with SNB-19, in the assay on HCT-116 and in the assay with OVCAR-3 was > 100 µM (inactive) throughout. Besides, the GI50 in the assay on IGROV-1, with LXFL 529, in the assay with SNB-78, in the assay on NCI-H522, with HT-29 and with OVCAR-4 was > 100 µM (inactive) each time. Moreover, the GI50 in the assay on UACC-257, in the assay on SF-268, with SK-MEL-28, in the assay with SF-539, in the assay on KM12 and in the assay with NCI-H23 was > 100 µM (inactive) throughout.
With `Oc1cccc(-c2cc(O)c3cc4c(cc3n2)OCO4)c1`, the GI50 with RXF 393 was 1.67 µM (inactive); with SK-MEL-5 it was 1.46 µM (inactive); in the assay with SNB-19, 3.84 µM (inactive); in the assay on HCT-116, 1.43 µM (inactive); in the assay on Hs-578T it was 0.457 µM (active); with OVCAR-3, 0.193 µM (active). Also, the GI50 in the assay with PC-3 was 1.55 µM (inactive); in the assay with IGROV-1 it was 4.98 µM (inactive); in the assay with LXFL 529 it was 1.87 µM (inactive); with SNB-78, 1.03 µM (active); in the assay on NCI-H522, 0.284 µM (active); in the assay on HT-29, 3.37 µM (inactive). Further, the GI50 with OVCAR-4 is > 100 µM (inactive); in the assay with UACC-257 it was > 26.1 µM (inactive); with SF-268, 1.71 µM (inactive); in the assay on SK-MEL-28 it was 2.81 µM (inactive); with SF-539, 1.7 µM (inactive); in the assay on KM12, 0.561 µM (active). The GI50 with NCI-H23 was 4.3 µM (inactive).
In the case of `Nc1cccc(-c2cc(O)c3cc4c(cc3n2)OCO4)c1`, the GI50 in the assay on RXF 393 was 1.02 µM (active); in the assay on HOP-92, 1.02 µM (active); with SK-MEL-5, 0.427 µM (active); with SNB-19, 2.19 µM (inactive); with HCT-116, 0.389 µM (active); in the assay with Hs-578T it was 0.389 µM (active). Further, the GI50 with OVCAR-3 was 0.188 µM (active); in the assay on PC-3, 0.644 µM (active); in the assay on LXFL 529, 0.527 µM (active); in the assay with SNB-78, 0.834 µM (active); in the assay on NCI-H522, 0.273 µM (active); in the assay with HT-29, 1.74 µM (inactive). Further, the GI50 in the assay on OVCAR-4 was > 61.9 µM (inactive); in the assay with SF-268 it was 1.77 µM (inactive); in the assay with SK-MEL-28 it was 2.19 µM (inactive); with SF-539 it was 0.544 µM (active); in the assay with KM12 it was 0.593 µM (active); in the assay with NCI-H23 it was 2.86 µM (inactive).
